Assay results published in US20240076297A1, “ADENOSINE A2A AND A2B RECEPTOR DUAL ANTAGONISTS FOR IMMUNO-ONCOLOGY” (Merck Sharp & Dohme LLC, priority 2020, published 2024).
Values belong to the compound of their own block, whether it stands above or below them.

Target: human A2A adenosine receptor (Homo sapiens (Human), UniProt P29274)
Assay: A2A binding affinity using SPA, Method (B)
Settings: [3H] SCH58261, A2A receptor-expressing membranes
Source text: Method (A) describes the procedure used to measure A2A binding affinity using radioligand binding. Method (B) describes the procedure used to measure A2A binding affinity using SPA technology. The method used to measure A2B binding affinity is also described below. The method used to determine the A2A IC50 value reported for each compound in the table is indicated next to the reported value. The A2B IC50 value measured using the A2B binding affinity assay is shown in the table next to the compound under the corresponding A2A value.
The A2A receptor affinity binding assay measured the amount of binding of a tritiated ligand with high affinity for the A2A adenosine receptor to membranes made from HEK293 or CHO cells recombinantly expressing the human A2A adenosine receptor, in the presence of varying concentrations of a compound of the invention. The data were generated using either filtration binding or a homogenous scintillation proximity assay (SPA).
Method (B): Measurement of A2A Binding Affinity Using SPA
Binding affinity using SPA was conducted as follows. Test compounds (50 nL) were dispensed into individual wells of a 384-well OptiPlate™ well (Perkin Elmer) by Echo® acoustic liquid transfer (Labcyte). 20 μL of 1.25 nM [^3H] SCH58261 ((7-(2-phenylethyl)-5-amino-2-(2-furyl)-pyrazolo-[4,3-e]-1,2,4-triazolo[1,5-c]pyrimidine)) in DPBS assay buffer (Dulbecco's phosphate buffered saline without calcium and magnesium, ThermoFisher Scientific, Cat. No. A1285601) supplemented with 10 mM MgCl2 was added. A2A receptor-expressing membranes were incubated with 20 μg/mL adenosine deaminase (Roche, Cat. No. 10 102 105 001) for 15 min at room temperature. The receptor-expressing membranes were then combined with wheat germ agglutinin-coated yttrium silicate SPA beads (GE Healthcare, Cat. No. RPNQ0023) in a ratio of 1:1000 (w/w) and incubated for 30 min at room temperature. 30 μL of the membrane/bead mixture (0.25 μg and 25 μg per well respectively) were added to the 384-well OptiPlate™ well. To define total and non-specific binding, wells containing 1% DMSO or 1 μM CGS15943 (Tocris Bioscience, Cat. No. 1699) respectively were also included in the experiment. The plate was incubated for 1 h at room temperature with agitation. The assay plate was then incubated for an h to allow the beads to settle before data were collected using a TopCount® (Perkin Elmer) scintillation counter. After normalization to total and non-specific binding, the percent effect at each compound concentration was calculated. The plot of percent effect versus the log of compound concentration was analyzed electronically using a 4-parameter logistic fit based on the Levenberg-Marquardt algorithm to generate IC50 values.

Chain of human A2A adenosine receptor (P29274 whole entry): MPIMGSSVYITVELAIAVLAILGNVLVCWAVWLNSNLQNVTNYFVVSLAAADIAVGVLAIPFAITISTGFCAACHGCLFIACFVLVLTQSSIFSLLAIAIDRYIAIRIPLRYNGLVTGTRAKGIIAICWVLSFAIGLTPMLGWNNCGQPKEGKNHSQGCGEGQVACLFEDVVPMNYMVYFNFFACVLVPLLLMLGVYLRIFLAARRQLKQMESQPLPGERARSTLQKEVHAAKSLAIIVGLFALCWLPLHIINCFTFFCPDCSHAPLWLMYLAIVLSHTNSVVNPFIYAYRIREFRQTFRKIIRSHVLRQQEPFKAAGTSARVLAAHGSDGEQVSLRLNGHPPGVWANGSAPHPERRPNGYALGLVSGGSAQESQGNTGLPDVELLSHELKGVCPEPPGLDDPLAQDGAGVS

IC50: 7.2 nM
SMILES: COc1cccc2c1nc(N)n1nc(COCCF)nc21 [Example 4.12, 2-((2-fluoroethoxy)methyl)-7-methoxy-[1,2,4]triazolo[1,5-c]quinazolin-5-amine]

IC50: 4.4 nM
SMILES: COc1cccc2c1nc(N)n1nc(COCC(F)F)nc21 [Example 4.10, 2-((2,2-difluoroethoxy)methyl)-7-methoxy-[1,2,4]triazolo[1,5-c]quinazolin-5-amine]

IC50: 3.5 nM
SMILES: COc1cccc2c1nc(N)n1nc(COCC(F)(F)F)nc21 [Example 4.11, 7-methoxy-2-((2,2,2-trifluoroethoxy)methyl)-[1,2,4]triazolo[1,5-c]quinazolin-5-amine]

More lines, now with the values behind:

SMILES: COc1cccc2c1nc(N)n1nc(COCc3csc4ccccc34)nc21 [Example 4.8, 2-((benzo[b]thiophen-3-ylmethoxy)methyl)-7-methoxy-[1,2,4]triazolo[1,5-c]quinazolin-5-amine]
IC50: 2.9 nM

SMILES: COc1cccc2c1nc(N)n1nc(COCc3ccsc3)nc21 [Example 4.3, 7-methoxy-2-((thiophen-3-ylmethoxy)methyl)-[1,2,4]triazolo[1,5-c]quinazolin-5-amine]
IC50: 2.7 nM
